Test results taken from patent US20080058351A1, “Novel heterobicyclic compounds” (Concert Pharmaceuticals Inc., priority 2006, published 2008).

Tests used:
[1] = biological target: benzodiazepine site on the GABAA receptor (rat cortex); experiment: Inhibition of [3H]flunitrazepam binding to rat cortex membranes; conditions: read-out: IC50 for displacing [3H]flunitrazepam binding to rat cortex
[2] = test system: GABAA receptor (rat cortex membranes); experiment: Enhancement of [35S]TBPS binding to rat cortex membranes
Source text: A further index of activity at the benzodiazepine site on the GABAA receptor is the ability to increase the binding of [^35S] t-butylbicyclophosphorothionate (TBPS) to rat cortex membranes. TBPS binds to a site on the GABAA receptor which is closely associated with the chloride channel, and an increase in TBPS binding correlates with increased activation of the chloride conductance (i.e., enhanced GABAA receptor function). Compounds which act as agonists at the benzodiazepine site increase TBPS binding to varying degrees, which reflects their relative efficacies.

[3] = Human liver microsome metabolic stability assay (separate incubations); assay type: in vitro ADME; conditions: 1.0 mg/mL human liver microsomes
Source text: Human Microsomal Assay: The metabolic stability of the present compounds may be evaluated in one or more microsomal assays that are known in the art. See, for example, Obach, R. S. Drug Metab Disp 1999, 27, p. 1350 “Prediction of human clearance of twenty-nine drugs from hepatic microsomal intrinsic clearance data: An examination of in vitro half-life approach and nonspecific binding to microsomes”; Houston, J. B. et al., Drug Metab Rev 1997, 29, p. 891 “Prediction of hepatic clearance from microsomes, hepatocytes, and liver slices”; Houston, J. B. Biochem Pharmacol 1994, 47, p. 1469 “Utility of in vitro drug metabolism data in predicting in vivo metabolic clearance”; Iwatsubo, T et al., Pharmacol Ther 1997, 73, p. 147 “Prediction of in vivo drug metabolism in the human liver from in vitro metabolism data”; and Lave, T. et al., Pharm Res 1997, 14, p. 152 “The use of human hepatocytes to select compounds based on their expected hepatic extraction ratios in humans”; each of which are incorporated herein in their entirety.
The objectives of this study were to determine the metabolic stability of the test compounds in pooled liver microsomal incubations and to perform full scan LC-MS analysis for the detection of major metabolites. Samples of the test compounds, exposed to pooled human liver microsomes, were analyzed using HPLC-MS (or MS/MS) detection. For determining metabolic stability, multiple reaction monitoring (MRM) was used to measure the disappearance of the test compounds. For metabolite detection, Q1 full scans were used as survey scans to detect the major metabolites.
Experimental Procedures: Human liver microsomes were obtained from Absorption Systems L.P. (Exton, Pa.). Details about the matrices used in the experiments are shown below. The incubation mixture was prepared as follows:
Reaction Mixture Composition
Incubation of Test Compounds with Liver Microsomes: The reaction mixture, minus cofactors, was prepared. An aliquot of the reaction mixture (without cofactors) was incubated in a shaking water bath at 37° C. for 3 minutes. Another aliquot of the reaction mixture was prepared as the negative control. The test compound was added into both the reaction mixture and the negative control at a final concentration of 1 μM. An aliquot of the reaction mixture was prepared as a blank control, by the addition of plain organic solvent (not the test compound). The reaction was initiated by the addition of cofactors (not into the negative controls), and then incubated in a shaking water bath at 37° C. Aliquots (200 μL) were withdrawn in triplicate at 0, 15, 30, 60, and 120 minutes and combined with 800 μL of ice-cold 50/50 acetonitrile/dH2O to terminate the reaction. The positive controls, testosterone and propranolol, were run simultaneously with the test compounds in separate reactions.
All samples were analyzed using LC-MS (or MS/MS). An LC-MRM-MS/MS method was used for metabolic stability. Also, Q1 full scan LC-MS methods were performed on the blank matrix and the test compound incubation samples. The Q1 scans served as survey scans to identify any sample unique peaks that might represent the possible metabolites. The masses of these potential metabolites can be determined from the Q1 scans.

[4] = Co-incubation of Compound 1 and Indiplon with human liver microsomes; assay type: in vitro ADME
Method: Co-incubation of Compound 1 and Indiplon with Human Liver Microsomes: In another set of experiments Compound 1 and Indiplon were incubated together with human liver microsomes and their metabolism followed over time to eliminate any potential variability in samples. The reaction mixture compositions utilized in these experiments were as follows:
Reaction Mixture Composition A:
Reaction Mixture Composition B:
Reaction Mixture Composition C:
HPLC-grade solvents were used for preparation of all solutions. Dosing solutions of test agents were initially prepared at five times the final concentrations of the various reaction mixtures indicated above. Dosing solutions were warmed to 37° C. prior to the start of the assay. Two sets of triplicate wells were prepared in a 96-well deep well plate for each reaction mixture and warmed to 37° C. At the start of the assay, dosing solutions were diluted five-fold into the reaction wells. The reaction plate was incubated at 37° C., and 30 μL aliquots removed immediately after start (15 sec), and after each of 10 min, 20 min, 30 min, 40 min and 60 min of reaction. The aliquots were added to 30 μL of ice cold STOP Solution (acetonitrile containing 0.3% acetic acid with 3 mM haloperidol as an internal standard) in a separate 96-well plate. The stopped reactions were incubated at least 10 min at −20° C., and 30 μL of water was added. The plates were centrifuged for 15 min at 2000 rpm, 4° C. Approximate 60 μL of the supernatant was removed without disturbing the pellet and transferred to a fresh 96-well plate for analysis. Analysis samples were stored at −20° C. and analyzed by LC-MS.

[5] = biological target: benzodiazepine receptor of the rat cerebral cortex; experiment: Benzodiazepine receptor binding, competition with [3H]flunitrazepam; conditions: [3H]flunitrazepam 0.4 nM, 4° C., 60 minutes
Method: Benzodiazepine Receptor Binding. Compound 1 and Indiplon were compared in their ability to bind to compete with [^3H] flunitrazepam (0.4 nM) for binding to the benzodiazepine receptor of the rat cerebral cortex using the method of Speth, R C et al., 1979, Life Sci., 24:351-358. Varying concentrations of Indiplon or Compound 1 (30 pM-1 μM) were used. Diazepam (3 μM) was used as a non-specific receptor binding compound. Binding was allowed to proceed at 4° C. for 60 minutes. Quantification of binding was determined by scintillation counting.

## Cc1nnc2n1-c1ccc(Cl)cc1C(c1ccccc1Cl)=NC2 [triazolam]
[1]
  IC50: 0.5 nM
[2]
  Emax (maximum enhancement of TBPS binding over the concentration range employed): 78%

## CN1C(=O)CN=C(c2ccccc2)c2cc(Cl)ccc21 [diazepam]
[1]
  IC50: 17 nM
[2]
  Emax (maximum enhancement of TBPS binding over the concentration range employed): 55%

## CN1C(=O)CN=C(c2ccccc2F)c2cc([N+](=O)[O-])ccc21 [flunitrazepam]
[1]
  IC50: 114 nM

## Cc1ccc(-c2nc3ccc(C)cn3c2CC(=O)N(C)C)cc1 [zolpidem]
[1]
  IC50: 26 nM

## [2H]C([2H])([2H])N(C(C)=O)c1cccc(-c2ccnc3c(C(=O)c4cccs4)cnn23)c1 [Compound 1, N-d3-Methyl-N-{3-[3-(thiophene-2-carbonyl)-pyrazolo[1,5-a]pyrimidin-7-yl]-phenyl}-acetamide]
[3]; 1 μM test compound
  half life: 1.24 h
  % remaining after 60 minutes of exposure: 66%
  % remaining after 120 minutes of exposure: 59%
[3]; 1 μM
  ratio of half lives of Compound 1 to Indiplon: 1.261
[4]; 0.1 μM each, 1.0 mg/ml human microsomes (FIG. 1 panel B)
  half-life: 4.557 h
[4]; 0.1 μM each, 1.0 mg/ml human microsomes (panel B)
  ratio of half lives of Compound 1 to Indiplon: 1.257
[4]; 0.2 μM each, 2.0 mg/ml human microsomes (FIG. 1 panel C)
  half-life: 2.543 h
[4]; 0.2 μM each, 2.0 mg/ml human microsomes (panel C)
  ratio of half lives of Compound 1 to Indiplon: 1.312
[4]; 0.5 μM each, 1.0 mg/ml human microsomes (FIG. 1 panel A)
  half-life: 3.405 h
[4]; 0.5 μM each, 1.0 mg/ml human microsomes (panel A)
  ratio of half lives of Compound 1 to Indiplon: 1.260

## CCN(CC)CCN1C(=O)CN=C(c2ccccc2F)c2cc(Cl)ccc21 [flurazepam]
[2]
  Emax (maximum enhancement of TBPS binding over the concentration range employed): 71%

## CC(=O)N(C)c1cccc(-c2ccnc3c(C(=O)c4cccs4)cnn23)c1 [Compound 1, N-d3-Methyl-N-{3-[3-(thiophene-2-carbonyl)-pyrazolo[1,5-a]pyrimidin-7-yl]-phenyl}-acetamide]
[5]
  IC50: 2.9 nM
  Ki: 2.4 nM

## CC(=O)N(C)c1cccc(-c2ccnc3c(C(=O)c4cccs4)cnn23)c1 [Indiplon, N-methyl-N-[3-[3-(2-thienylcarbonyl)-pyrazolo[1,5-a]pyrimidin-7-yl]phenyl]acetamide]
[3]; 1 μM test compound
  % remaining after 60 minutes of exposure: 50%
  % remaining after 120 minutes of exposure: 42%
[3]; pooled human liver microsomes, 1 μM test compound
  half-life at 1 μM: 0.983 h
[4]; human liver microsomes, 0.1 μM each, 1.0 mg/ml human microsomes (FIG. 1 panel B)
  half-life at 0.1 μM: 3.62 h
[4]; human liver microsomes, 0.2 μM each, 2.0 mg/ml human microsomes (FIG. 1 panel C)
  half-life at 0.2 μM: 1.94 h
[4]; human liver microsomes, 0.5 μM each, 1.0 mg/ml human microsomes (FIG. 1 panel A)
  half-life at 0.5 μM: 2.7 h
[5]
  IC50: 3.6 nM
  Ki: 3 nM
